Measured values taken from patent publication US20190380978A1, “SOLID ORAL DOSAGE FORMS OF 2R,6R-HYDROXYNORKETAMINE OR DERIVATIVES THEREOF” (priority 2016, published 2019).

Key:
[1] = tested on: cryopreserved hepatocytes; test: in vitro hepatocyte stability assay, human; type: in vitro ADME
Procedure: (§1) 2R,6R-hydroxynorketamine was investigated using an in vitro hepatocyte stability assay, during which 2R,6R-hydroxynorketamine was incubated with cryopreserved hepatocytes from 3 test species.

5-HT2B = 5-HT2B (Homo sapiens, UniProt P41595); test: binding to 5-HT2B receptor
5-HT2B, sequence (P41595 whole entry, species assumed): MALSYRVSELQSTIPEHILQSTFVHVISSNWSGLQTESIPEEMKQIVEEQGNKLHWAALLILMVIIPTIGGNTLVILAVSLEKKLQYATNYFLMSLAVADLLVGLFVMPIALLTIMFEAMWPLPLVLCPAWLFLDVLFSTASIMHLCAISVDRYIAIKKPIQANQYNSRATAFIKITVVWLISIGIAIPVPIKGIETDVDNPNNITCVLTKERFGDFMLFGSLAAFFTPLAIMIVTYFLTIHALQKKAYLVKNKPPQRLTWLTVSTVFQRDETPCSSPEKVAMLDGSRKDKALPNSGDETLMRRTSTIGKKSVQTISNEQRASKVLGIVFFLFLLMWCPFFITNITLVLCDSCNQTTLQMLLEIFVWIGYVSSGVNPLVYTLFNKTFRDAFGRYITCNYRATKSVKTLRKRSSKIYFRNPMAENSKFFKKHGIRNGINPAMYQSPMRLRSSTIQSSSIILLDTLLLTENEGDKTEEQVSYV
Excerpt: (§2) 2R,6R-hydroxynorketamine was investigated for binding to monoamine oxidases A and B, monoamine transporters, as well as a variety of 5HT receptors.

5-HT1, Non-Selective = test: binding to 5-HT1 receptors, non-selective
Excerpt: as §2
An absence of interaction between 2R,6R-hydroxynorketamine and 5HT1 receptors is also of note. Rare postmarketing reports have described patients with weakness, hyperreflexia, and incoordination following the use of an SSRI and the 5HT1 agonist, sumatriptan. The possibility of such interactions should also be considered if other 5HT1 agonists are to be used in combination with SSRIs.

5-HT2C = target: T1, 5-HT2C (Homo sapiens, UniProt P28335); test: binding to 5-HT2C receptor
T1 sequence (P28335 33-458): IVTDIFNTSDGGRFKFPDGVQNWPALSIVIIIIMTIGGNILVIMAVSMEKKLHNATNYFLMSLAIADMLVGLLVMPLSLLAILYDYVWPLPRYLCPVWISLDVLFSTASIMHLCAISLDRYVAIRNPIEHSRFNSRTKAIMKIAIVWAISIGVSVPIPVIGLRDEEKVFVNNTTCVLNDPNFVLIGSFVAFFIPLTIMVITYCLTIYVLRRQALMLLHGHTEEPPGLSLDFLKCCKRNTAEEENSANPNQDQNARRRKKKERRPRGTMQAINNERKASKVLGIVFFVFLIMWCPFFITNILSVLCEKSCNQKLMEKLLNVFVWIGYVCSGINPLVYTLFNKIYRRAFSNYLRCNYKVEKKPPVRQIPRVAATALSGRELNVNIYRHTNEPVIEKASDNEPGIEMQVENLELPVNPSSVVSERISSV
Excerpt: as §2

plasma binding proteins [2] = test: fraction unbound in 100% plasma, rat; type: in vitro ADME
Excerpt: (§3) While the risk of DDIs due to displacement from plasma binding proteins (PPBs) is relatively low, it should be considered for drugs which display a high proportion PPB (fraction unbound (fu)<1%).
(§4) The fu was investigated for 2R,6R-hydroxynorketamine using a 100% plasma from 4 test species.

plasma binding proteins [3] = test: fraction unbound in 100% plasma, human; type: in vitro ADME
Excerpt: as §3, §4

plasma binding proteins [4] = test: fraction unbound in 100% plasma, mouse; type: in vitro ADME
Excerpt: as §3, §4

CYP2C8 = target: T2, CYP2C8 (Homo sapiens, UniProt P10632); test: CYP inhibition assay, CYP2C8; type: in vitro ADME
T2 sequence (P10632 1-490): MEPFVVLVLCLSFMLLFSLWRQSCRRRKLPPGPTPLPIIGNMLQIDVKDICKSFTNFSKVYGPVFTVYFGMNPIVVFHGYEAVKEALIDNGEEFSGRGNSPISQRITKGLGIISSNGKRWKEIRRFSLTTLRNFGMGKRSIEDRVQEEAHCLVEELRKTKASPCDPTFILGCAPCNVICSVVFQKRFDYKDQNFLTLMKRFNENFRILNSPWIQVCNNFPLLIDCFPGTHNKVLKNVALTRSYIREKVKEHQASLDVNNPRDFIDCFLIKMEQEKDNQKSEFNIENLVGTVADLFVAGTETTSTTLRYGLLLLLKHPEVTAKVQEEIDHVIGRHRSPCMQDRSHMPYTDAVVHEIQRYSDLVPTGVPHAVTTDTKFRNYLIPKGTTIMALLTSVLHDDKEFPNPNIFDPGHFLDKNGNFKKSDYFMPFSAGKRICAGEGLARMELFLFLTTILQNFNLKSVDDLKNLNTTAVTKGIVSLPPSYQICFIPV
Excerpt: (§5) Cytochrome P450s (CYPs) are a family of enzymes that play a primary role in the metabolism of a wide variety of drugs. 2R,6R-hydroxynorketamine was investigated for its potential to inhibit the action of 7 key CYP enzymes using an inhibition assay measuring reduction in the formation of metabolites compared to control.

[5] = in vitro hepatocyte stability assay, dog; type: in vitro ADME; details: cryopreserved hepatocytes
Procedure: as §1

CYP2C19 = CYP2C19 (Homo sapiens, UniProt P33261); test: CYP inhibition assay, CYP2C19; type: in vitro ADME
CYP2C19, sequence (P33261 whole entry): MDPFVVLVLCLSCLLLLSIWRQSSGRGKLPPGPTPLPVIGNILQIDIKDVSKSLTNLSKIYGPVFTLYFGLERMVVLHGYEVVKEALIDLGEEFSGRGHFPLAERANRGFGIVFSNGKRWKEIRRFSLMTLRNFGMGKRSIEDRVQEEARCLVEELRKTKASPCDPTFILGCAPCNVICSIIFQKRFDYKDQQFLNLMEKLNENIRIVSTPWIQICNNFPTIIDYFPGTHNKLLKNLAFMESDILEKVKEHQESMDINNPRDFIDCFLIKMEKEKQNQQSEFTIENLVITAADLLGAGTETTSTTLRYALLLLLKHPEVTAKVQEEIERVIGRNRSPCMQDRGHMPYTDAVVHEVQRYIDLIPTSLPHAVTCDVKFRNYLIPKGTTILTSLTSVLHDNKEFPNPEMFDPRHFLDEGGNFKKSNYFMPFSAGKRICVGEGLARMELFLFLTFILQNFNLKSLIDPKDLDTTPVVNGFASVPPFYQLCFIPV
Excerpt: as §5

plasma binding proteins [6] = test: fraction unbound in 100% plasma, dog; type: in vitro ADME
Excerpt: as §3, §4

CYP1A2 = target: T3, CYP1A2 (Homo sapiens, UniProt P05177); test: CYP inhibition assay, CYP1A2; type: in vitro ADME
T3 sequence (P05177 1-516): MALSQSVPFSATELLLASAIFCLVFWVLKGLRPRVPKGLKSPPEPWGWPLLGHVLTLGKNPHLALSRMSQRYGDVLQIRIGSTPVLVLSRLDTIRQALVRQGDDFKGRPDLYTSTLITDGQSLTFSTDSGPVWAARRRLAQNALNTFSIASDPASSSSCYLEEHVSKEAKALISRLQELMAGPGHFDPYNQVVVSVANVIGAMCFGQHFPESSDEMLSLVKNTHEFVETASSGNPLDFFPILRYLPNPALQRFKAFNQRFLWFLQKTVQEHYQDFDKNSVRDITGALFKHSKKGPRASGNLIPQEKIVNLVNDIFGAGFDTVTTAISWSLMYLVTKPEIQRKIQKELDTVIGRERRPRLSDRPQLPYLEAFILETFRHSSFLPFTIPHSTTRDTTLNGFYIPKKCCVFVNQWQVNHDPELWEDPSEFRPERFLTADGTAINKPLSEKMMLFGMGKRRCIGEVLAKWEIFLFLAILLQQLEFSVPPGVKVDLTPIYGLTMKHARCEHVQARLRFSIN
Excerpt: as §5

Compound: N[C@@]1(c2ccccc2Cl)CCC[C@@H](O)C1=O [2R,6R-hydroxynorketamine]
- CLint ([1]; Human hepatocytes): −1.07 gL/min/10^6 cells
- hepatic clearance in humans ([1]; human hepatocyte stability assay): does not undergo hepatic clearance
- % Inhibition of Control Specific Binding (5-HT2B): 5%
- % of Control Specific Binding (5-HT2B): 100.9%
- binding to 5HT2B receptor subtype (5-HT2B): does not bind
- % Inhibition of Control Specific Binding (5-HT1, Non-Selective): −9%
- % of Control Specific Binding (5-HT1, Non-Selective): 105.4%
- binding to 5HT1 receptors (5-HT1, Non-Selective): does not bind
- % Inhibition of Control Specific Binding (5-HT2C): 10%
- % of Control Specific Binding (5-HT2C): 91.1%
- binding to 5HT2C receptor subtype (5-HT2C): does not bind
- plasma protein binding (PPB), words (plasma binding proteins [2]): low PPB
- plasma protein binding (PPB), words (plasma binding proteins [3]): low PPB
- plasma protein binding (PPB), words (plasma binding proteins [4]): low PPB
- inhibition of CYP2C8 (CYP2C8): did not inhibit
- inhibition at 0.4 µM (CYP2C8; human, 0.4 μM): 5.63%
- inhibition at 1 µM (CYP2C8; human, 1 μM): 4.91%
- inhibition at 4 µM (CYP2C8; human, 4 μM): 12.5%
- inhibition at 10 µM (CYP2C8; human, 10 μM): 8.33%
- inhibition at 40 µM (CYP2C8; human, 40 μM): 8.35%
- inhibition at 100 µM (CYP2C8; human, 100 μM): 2.08%
- half-life [5]: 4.9 h
- hepatocyte CLint [5]: 4.72 µL/min/1e6 cells
- inhibition of CYP2C19 (CYP2C19): did not inhibit
- inhibition at 0.4 µM (CYP2C19; human, 0.4 μM): -2.01%
- inhibition at 1 µM (CYP2C19; human, 1 μM): -1.66%
- inhibition at 4 µM (CYP2C19; human, 4 μM): 1.85%
- inhibition at 10 µM (CYP2C19; human, 10 μM): 6.69%
- inhibition at 40 µM (CYP2C19; human, 40 μM): 8.25%
- inhibition at 100 µM (CYP2C19; human, 100 μM): 16.1%
- plasma protein binding (PPB), words (plasma binding proteins [6]): low PPB
- IC50 (CYP1A2): ~100 µM
- inhibition at 0.4 µM (CYP1A2; 0.4 μM): 7.55%
- inhibition at 1 µM (CYP1A2; 1 μM): 8.8%
- inhibition at 4 µM (CYP1A2; 4 μM): 11.7%
- inhibition at 10 µM (CYP1A2; 10 μM): 19.3%
- inhibition at 40 µM (CYP1A2; 40 μM): 24.8%
- inhibition at 100 µM (CYP1A2; 100 μM): 48.6%
